Literature values in patent US20090081206A1, “METHOD AND PHARMACEUTICAL COMPOSITION FOR INHIBITING PREMATURE RAPTURE OF FETAL MEMBRANES, RIPENING OF UTERINE CERVIX AND PRETERM LABOR IN MAMMALS” (priority 1997, published 2009).
Read-outs that look alike come from different tables or passages of the source. Each block holds one compound with its values, some of them ahead of it.

How the values were obtained:
[1] = intravaginal tablets
[2] = for need for additional oxytocin: compared with 100% in placebo
[3] = 3-mg intravaginal pessaries, mixed group of multigravidae and primigravidae
[4] = women with cervical Bishop score of 4-5
[5] = in vivo
[6] = not given; remark: listed apart in the source
[7] = severe pregnancy-induced hypertension
[8] = patches, only 13 cases studied
[9] = after single 3-mg suppository alone

Compound: CCCCC[C@H](O)/C=C/[C@H]1[C@H](O)CC(=O)[C@@H]1C/C=C\CCCC(=O)O [PGE2, prostaglandin E2]
patients induced successfully (achieving active labor) ([1]; multigravidae, 1-mg group): 39.1%
patients induced successfully (achieving active labor) ([1]; multigravidae, 5-mg group): 62.2%
patients induced successfully (achieving active labor) ([1]; primigravidae, 1-mg group): 29.6%
patients induced successfully (achieving active labor) ([1]; primigravidae, 5-mg group): 62.9%
established labor and delivered their infants without oxytocin augmentation ([2]; multigravidae, 2.5-mg vaginal suppositories): 81%
need for additional oxytocin ([2]; multigravidae): 19.1%
established labor and delivered their infants without oxytocin augmentation ([2]; primigravidae, 5-mg vaginal suppositories): 63%
need for additional oxytocin ([2]; primigravidae): 37.5%
treatment-to-delivery interval ([2]; shorter compared with controls): 7.6 to 11.6 h
success rate for induced labor [3]: 55%
mean time to labor [9]: 1.5 h
patients in whom labor was achieved [9]: 98%
additional oxytocin augmentation needed (multifarious women): 14%
additional oxytocin augmentation needed (nulliparous women): 71%
vaginal birth within 24 hours [4]: 17 of 19

plasma half-life [5]: 5 to 17 min
Compound: CC[C@H](C)[C@@H]1NC(=O)[C@H](Cc2ccc(O)cc2)NC(=O)[C@@H](N)CSSC[C@@H](C(=O)N2CCC[C@H]2C(=O)N[C@@H](CC(C)C)C(=O)NCC(N)=O)NC(=O)[C@H](CC(N)=O)NC(=O)[C@H](CCC(N)=O)NC1=O [oxytocin]
antidiuretic and pressor activity relative to vasopressin [6]: 1%
vaginal birth within 24 hours [4]: 8 of 19

Compound: O=[N+]([O-])OCC(CO[N+](=O)[O-])O[N+](=O)[O-] [GTN, glycerol trinitrate]
reduction of capillary wedge pressure [7]: 30%
reduction of mean arterial blood pressure [7]: 25%
suppression of preterm labor, safety and tolerability [8]: safe, well-tolerated and non-invasive method of suppressing preterm labor
